According to US12202835B2, “Substituted aromatic ring-linked dioxinoquinazolines and dioxinoquinolines as kinase inhibitors” (BEIJING SCITECH-MQ PHARMACEUTICALS LIMITED, priority 2018, dated 2025):

Key:
[1] = target: c-MET kinase (Homo sapiens (Human), UniProt P08581); assay: Assay of small molecular compounds for inhibiting the activity of c-MET kinase (LANCE TR-FRET); format: biochemical; conditions: read-out: CMET IC50
Method in brief: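 Eleven final concentrations from 2500 nM down to 0.042 nM, in 4% DMSO, were tested against human c-MET (2× stock 2 nM), with compound and enzyme premixed for 5 min. The phosphorylation reaction used 4× stock of 400 nM ULight-JAK-1 peptide and 40 μM ATP for 60 min at room temperature, then stop and detection steps. TR-FRET percent inhibition against positive and negative controls gave the IC50.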

[2] = target: VEGFR-2 kinase (Homo sapiens (Human), UniProt P35968); assay: Assay of small molecular compounds for inhibiting the activity of VEGFR-2 kinase (LANCE TR-FRET); format: biochemical; conditions: read-out: VEGFR2 IC50
Method in brief: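 LANCE TR-FRET with human VEGFR-2 (2× stock 0.5 nM) preincubated 30 min with compound (final 2500 to 0.042 nM, 11-point 3-fold), then ULight-JAK-1 (Tyr1023) peptide/ATP added (4× stocks 200 nM/40 μM). Reaction 60 min room temperature, 4% DMSO; IC50 from inhibition-rate curve.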

[3] = test system: Ba/F3-AXL cells; assay: Assay for inhibiting the proliferation of Ba/F3-AXL cells (CCK-8); format: cell-based; conditions: 72 hours of incubation, medium with 100 ng/mL hGas6, CCK-8
Procedure: The values were then imported into Graphpad Prism 5 software for curve fitting, and IC50 was calculated.

Sequence of c-MET kinase (P08581 25-1390): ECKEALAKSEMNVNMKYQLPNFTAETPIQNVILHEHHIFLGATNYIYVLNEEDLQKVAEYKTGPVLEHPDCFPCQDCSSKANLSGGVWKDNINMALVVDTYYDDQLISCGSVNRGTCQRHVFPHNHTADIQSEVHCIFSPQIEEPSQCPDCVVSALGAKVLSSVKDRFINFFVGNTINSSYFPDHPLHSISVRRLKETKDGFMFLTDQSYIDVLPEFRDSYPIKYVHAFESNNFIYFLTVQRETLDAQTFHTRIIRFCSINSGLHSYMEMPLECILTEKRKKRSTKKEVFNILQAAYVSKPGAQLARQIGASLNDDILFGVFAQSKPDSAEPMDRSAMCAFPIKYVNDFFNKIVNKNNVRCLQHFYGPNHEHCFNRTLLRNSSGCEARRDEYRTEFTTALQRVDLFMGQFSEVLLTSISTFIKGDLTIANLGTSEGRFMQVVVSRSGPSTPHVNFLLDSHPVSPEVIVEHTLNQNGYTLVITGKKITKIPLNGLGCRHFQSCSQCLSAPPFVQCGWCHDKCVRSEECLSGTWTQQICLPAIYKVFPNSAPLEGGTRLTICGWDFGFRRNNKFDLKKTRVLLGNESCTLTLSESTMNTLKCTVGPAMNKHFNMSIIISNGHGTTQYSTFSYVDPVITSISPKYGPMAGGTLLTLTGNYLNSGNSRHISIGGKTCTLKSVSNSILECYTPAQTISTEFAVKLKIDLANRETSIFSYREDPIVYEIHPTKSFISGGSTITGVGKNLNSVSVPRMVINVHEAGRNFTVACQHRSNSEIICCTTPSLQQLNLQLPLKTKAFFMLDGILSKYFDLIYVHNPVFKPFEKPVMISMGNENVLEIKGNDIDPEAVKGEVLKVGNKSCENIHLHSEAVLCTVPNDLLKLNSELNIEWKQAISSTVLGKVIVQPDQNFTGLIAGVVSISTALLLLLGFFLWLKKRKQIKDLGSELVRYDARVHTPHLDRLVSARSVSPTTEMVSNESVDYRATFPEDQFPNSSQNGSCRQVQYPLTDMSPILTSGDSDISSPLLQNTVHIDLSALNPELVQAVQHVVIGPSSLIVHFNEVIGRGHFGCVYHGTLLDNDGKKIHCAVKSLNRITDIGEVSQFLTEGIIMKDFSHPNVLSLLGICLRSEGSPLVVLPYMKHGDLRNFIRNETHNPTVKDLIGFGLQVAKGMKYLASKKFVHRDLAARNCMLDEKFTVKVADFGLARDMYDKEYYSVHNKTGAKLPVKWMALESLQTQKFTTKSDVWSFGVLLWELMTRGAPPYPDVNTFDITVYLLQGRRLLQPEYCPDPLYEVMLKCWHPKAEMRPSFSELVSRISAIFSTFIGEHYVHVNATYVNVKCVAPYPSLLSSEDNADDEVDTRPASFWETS
Sequence of VEGFR-2 kinase (P35968 20-1356): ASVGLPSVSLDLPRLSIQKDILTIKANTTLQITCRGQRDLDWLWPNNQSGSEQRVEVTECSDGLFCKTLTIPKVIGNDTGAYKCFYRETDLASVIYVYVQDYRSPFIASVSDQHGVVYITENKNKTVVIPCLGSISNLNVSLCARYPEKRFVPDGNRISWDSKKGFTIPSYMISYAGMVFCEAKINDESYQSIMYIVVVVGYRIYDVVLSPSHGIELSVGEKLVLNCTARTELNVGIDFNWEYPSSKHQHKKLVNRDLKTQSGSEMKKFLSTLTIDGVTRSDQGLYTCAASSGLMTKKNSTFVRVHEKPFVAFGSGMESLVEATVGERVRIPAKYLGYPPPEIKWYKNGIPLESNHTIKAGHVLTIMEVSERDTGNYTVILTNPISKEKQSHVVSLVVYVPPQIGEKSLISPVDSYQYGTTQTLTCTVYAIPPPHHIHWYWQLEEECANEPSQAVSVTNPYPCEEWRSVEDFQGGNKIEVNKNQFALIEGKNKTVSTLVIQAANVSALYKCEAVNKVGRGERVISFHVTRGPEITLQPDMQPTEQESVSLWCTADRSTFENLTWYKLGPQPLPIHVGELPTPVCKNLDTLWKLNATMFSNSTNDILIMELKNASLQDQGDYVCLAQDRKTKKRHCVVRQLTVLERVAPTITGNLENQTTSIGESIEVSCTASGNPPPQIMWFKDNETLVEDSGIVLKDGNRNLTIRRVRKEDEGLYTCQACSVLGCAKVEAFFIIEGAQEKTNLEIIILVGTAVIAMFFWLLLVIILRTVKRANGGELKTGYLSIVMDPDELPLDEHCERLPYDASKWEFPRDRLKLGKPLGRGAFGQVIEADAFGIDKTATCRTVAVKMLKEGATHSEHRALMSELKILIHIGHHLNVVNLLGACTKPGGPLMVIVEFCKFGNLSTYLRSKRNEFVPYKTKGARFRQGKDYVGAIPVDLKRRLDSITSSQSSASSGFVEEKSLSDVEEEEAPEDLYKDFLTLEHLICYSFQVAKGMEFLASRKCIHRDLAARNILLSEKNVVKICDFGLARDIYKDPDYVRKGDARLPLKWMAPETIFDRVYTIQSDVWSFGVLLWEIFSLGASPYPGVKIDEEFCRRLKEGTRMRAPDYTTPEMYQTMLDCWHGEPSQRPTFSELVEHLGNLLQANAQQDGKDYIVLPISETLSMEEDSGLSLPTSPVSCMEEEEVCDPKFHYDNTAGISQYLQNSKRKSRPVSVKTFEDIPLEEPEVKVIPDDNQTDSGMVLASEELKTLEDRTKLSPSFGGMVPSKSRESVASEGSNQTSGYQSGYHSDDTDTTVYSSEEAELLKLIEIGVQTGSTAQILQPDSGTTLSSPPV

IC50 [1]	IC50 [2]	IC50 [3]	SMILES
≤ 50 nM	50 to 500 nM	< 50 nM	COc1ccn(-c2ccc(F)cc2)c(=O)c1C(=O)Nc1ccc(Oc2ncnc3cc(OCCCN4CCOCC4)c4c(c23)OCCO4)c(F)c1 [Example 5, N-(3-fluoro-4-((5-(3-morpholinopropoxy)-2,3-dihydro-[1,4]dioxino[2,3-f]quinazolin-10-yl)oxy)phenyl)-1-(4-fluorophenyl)-4-methoxy-2-oxo-1,2-dihydropyridine-3-carboxamide]
≤ 50 nM	500 to 5000 nM	< 50 nM	C=CCn1cc(C(=O)Nc2ccc(Oc3ccnc4cc(OC)c5c(c34)OCCO5)c(F)c2)c(=O)n(-c2ccc(F)cc2)c1=O [Example 100, N-(3-fluoro-4-((5-methoxy-2,3-dihydro-[1,4]dioxino[2,3-f]quinolin-10-yl)oxy)phenyl)-3-(4-fluorophenyl)-1-allyl-2,4-dioxo-1,2,3,4-tetrahydropyrimidine-5-carboxamide]
≤ 50 nM	50 to 500 nM	< 50 nM	CCn1cc(C(=O)Nc2ccc(Oc3ccnc4cc(OCCCN5CCCCC5)c5c(c34)OCCO5)c(F)c2)c(=O)n(-c2ccc(F)cc2)c1=O [Example 41, N-(3-fluoro-4-((5-(3-(piperidin-1-yl)propoxy)-2,3-dihydro-[1,4]dioxino[2,3-f]quinolin-10-yl)oxy)phenyl)-3-(4-fluorophenyl)-1-ethyl-2,4-dioxo-1,2,3,4-tetrahydropyrimidine-5-carboxamide]
